# Test system: free fat cell
# Assay: Activity on the adrenaline's decomposing action on free fat cell (free fatty acid liberation with adrenaline)
# Format: cell-based, male Wister rat
# Conditions: adrenaline 0.5 μg/ml alone
# Experimental: Eight grams of fat tissue at epididymis of male Wister rat (body weight 150-200 g) was sliced and was added into 20 ml of a Krebs-Ringer phosphoric acid buffer solution (pH 7.4) (hereinafter referred to as KRP buffer solution) containing 20 mg of glucose, 4% of bovine serum albumin and 20 mg of collagenase. The mixture was incubated at 37° C. for 50 min, and after filtration with nylon mesh, was centrifuged at 500 rpm for 30 sec; then, any portion that was not the fat cell layer was sucked out. The fat cell layer was washed twice with the KRP buffer solution and then diluted to 20 ml by addition of the KRP buffer solution. To 0.25 ml of this suspension, 0.5 ml of KRP buffer solution containing 5% of bovine serum albumin and 0.1 ml of the liquids to be tested or KRP buffer solution as control were added; these mixtures were incubated at 37° C. for 2 hr and the freed fatty acids were assayed by Dole's method (V. P. Dole, J. Clin. Invest., 35, 150 (1956)).
smiles,measurement,value
CNCC(O)c1ccc(O)c(O)c1 (stereo not shown) [adrenaline],action of adrenaline on free fat cell (in words),free fatty acid is freed
